Measured values from US8298555B2, “Color cosmetic compositions for topical anti-aging skin treatment” (Discovery Partners, LLC, priority 2007, dated 2012).

Assay: stability of absorbance spectrum under intense pulsed light (IPL) flashes
Type: physicochemical
Details: ten pulses at the maximum power of the flash lamp
Description: Another aspect of the present invention is that controlled dissociation of the sodium-copper-chlorophyllin complex can occur in part because of the high stability of this complex. Normally, inorganic and organic copper salts, including copper-peptides, are not very stable with regard to binding copper. The inherent stability and lack of reactivity of sodium-copper-chlorophyllin is essential for this process to work successfully. […] Stability was monitored by measurement of the dye's full absorbance spectrum, since degradation of the dye would be detectable as changes in the absorbance spectrum.

absorbance spectrum after IPL exposure (thermal and light stability): remained unchanged
Substance: sodium-copper-chlorophyllin
